Results published in patent US20250368633A1, “AZEPINE FUSED RING COMPOUND AS RIPK1 INHIBITOR AND USE THEREOF” (ARTIVILA BIOPHARMA, priority 2022, published 2025).

Assays:
U937 cells [1] = assay: EC50 of necroptosis inhibition in U937 cells (TSZ-induced, CellTiter-Glo); assay type: cell-based; conditions: Homo sapiens, U-937; TSZ (hTNF-α, SM-164, Z-VAD-FMK) 20 hours; 10 concentration points; read-out: EC50 intervals of necroptosis inhibition in U937 cells
Procedure: (§1) The biological activity of RIPK1 inhibitors was further evaluated in the inhibition of necroptosis in U937 cells. U937 cell line was purchased from Huatuo Biotechnology and stored in liquid nitrogen. U937 cells were revived before the experiment and cultured in RPMI-1640 medium (supplemented with 10% fetal bovine serum, 100 U/mL penicillin and 100 μg/mL streptomycin) at 37° C., 5% CO2. The activity was further evaluated by the cellular ATP level detected by the Promega CellTiter-Glo 2.0 Assay cell viability assay kit (Catalog No.: G9242).
The experimental method was briefly described as below. U937 cells in the logarithmic growth phase were collected by centrifugation. Cells were diluted to the cell density of 5×10^5 cells/mL with RPMI 1640 medium (supplemented with 10% fetal bovine serum, 100 U/mL penicillin and 100 μg/mL streptomycin). Cell suspension was added to a white sterile 384-well cell culture plate at 15 μL/well. The test compound was dissolved in DMSO to prepare a 10 mM stock solution. The compound was serially diluted with culture medium at a ratio of 1:3, for a total of 10 concentration points. A control with the same DMSO volume was set, with two replicates for each concentration. The diluted compound was added to the 384-well cell culture plate containing cells at 2.5 μL/well and incubated at 37° C., 5% CO2 for 15 minutes. Z-VAD-FMK (Biyuntian, catalog number: C1202-5 mg) was dissolved in DMSO to prepare a 20 mM stock solution. SM-164 (Biyuntian, catalog number: SC0114-10 mM) was dissolved in DMSO to prepare a 10 mM stock solution and diluted to 0.1 mM. hTNF-α (Sino Biological Inc., catalog number: 10602-HNAE) was dissolved in sterile water to 10 μg/mL. RPMI 1640 medium (supplemented with 10% fetal bovine serum, 100 U/mL penicillin and 100 μg/mL streptomycin) was used to prepare the TSZ mixture, containing 133.3 μM Z-VAD-FMK, 33.3 ng/ml hTNF-α and 0.3 μM SM-164. After 15 minutes' coculture of compounds and cells, 7.5 μL of TSZ mixture was added to each well, mixed evenly, and cultured at 37° C., 5% CO2 for 20 hours. After 20 hours, the culture plate was removed and placed at room temperature for 30 minutes. Then, 10 μL of CellTiter-Glo reagent pre-equilibrated at room temperature was added to each well and incubated. After 10 minutes' incubation at room temperature in the dark, the chemiluminescence were measured using a microplate reader. The inhibition rate was calculated as Inh %=(1−(no TSZ-TSZ & compound)/(no TSZ-TSZ))×100. The EC50 was obtained by fitting the nonlinear regression curve log [inhibitor] vs. response−variable slope (four parameters) in GraphPad Prism.

U937 cells [2] = assay: Inhibition rate of compound (1 μM) on necroptosis of U937 cells (TSZ-induced, CellTiter-Glo); assay type: cell-based; conditions: TSZ (hTNF-α, SM-164, Z-VAD-FMK) 20 hours
Procedure: as §1
The experimental method was briefly described as below. U937 cells in the logarithmic growth phase were collected by centrifugation. Cells were diluted at the density of 5×10^5 cells/mL with RPMI 1640 medium (supplemented with 10% fetal bovine serum, 100 U/mL penicillin and 100 μg/mL streptomycin). The cell suspension was added to a white sterile 384-well cell culture plate at 15 μL/well. The test compound was dissolved in DMSO to prepare a 10 mM stock solution and diluted to 10 μM with culture medium. At the same time, a control with the same DMSO volume was set up. Two replicates were added for each concentration. The diluted compound was added to the 384-well cell culture plate containing cells at 2.5 µL/well and incubated at 37° C., 5% CO2 for 15 minutes. Z-VAD-FMK (Biyuntian, catalog number: C1202-5 mg) was dissolved in DMSO to prepare a 20 mM stock solution. SM-164 (Biyuntian, catalog number: SC0114-10 mM) was dissolved in DMSO to prepare a 10 mM stock solution and diluted to 0.1 mM. hTNF-α (Sino Biological Inc., catalog number: 10602-HNAE) was dissolved in sterile water to 10 μg/mL. RPMI 1640 medium (supplemented with 10% fetal bovine serum, 100 U/mL penicillin and 100 μg/mL streptomycin) was used to prepare the TSZ mixture, containing 133.3 μM Z-VAD-FMK, 33.3 ng/ml hTNF-α and 0.3 μM SM-164. After 15 minutes' coculture of compounds and cells, 7.5 μL of TSZ mixture was added to each well, mixed evenly, and cultured at 37° C., 5% CO2 for 20 hours. After 20 hours, the culture plate was removed and placed at room temperature for 30 minutes. 10 μL of CellTiter-Glo reagent pre-equilibrated at room temperature was added to each well and incubated for 10 minutes from light. The chemiluminescence was read by a microplate reader. The inhibition rate was calculated as Inh %=(1−(no TSZ-TSZ & compound)/(no TSZ-TSZ))×100.

RIPK1 kinase = molecular target: T1, RIPK1 kinase (Homo sapiens, UniProt Q13546); assay: In vitro RIPK1 kinase activity assay (ADP-Glo), inhibition by compounds at 1 μM; assay type: biochemical; conditions: compound 1 μM; ATP 10 μM; MBP substrate 100 μg/mL; read-out: RIPK1 kinase activity inhibition rate range
T1 construct: purchased Promega VA7593
T1 sequence (Q13546 1-671): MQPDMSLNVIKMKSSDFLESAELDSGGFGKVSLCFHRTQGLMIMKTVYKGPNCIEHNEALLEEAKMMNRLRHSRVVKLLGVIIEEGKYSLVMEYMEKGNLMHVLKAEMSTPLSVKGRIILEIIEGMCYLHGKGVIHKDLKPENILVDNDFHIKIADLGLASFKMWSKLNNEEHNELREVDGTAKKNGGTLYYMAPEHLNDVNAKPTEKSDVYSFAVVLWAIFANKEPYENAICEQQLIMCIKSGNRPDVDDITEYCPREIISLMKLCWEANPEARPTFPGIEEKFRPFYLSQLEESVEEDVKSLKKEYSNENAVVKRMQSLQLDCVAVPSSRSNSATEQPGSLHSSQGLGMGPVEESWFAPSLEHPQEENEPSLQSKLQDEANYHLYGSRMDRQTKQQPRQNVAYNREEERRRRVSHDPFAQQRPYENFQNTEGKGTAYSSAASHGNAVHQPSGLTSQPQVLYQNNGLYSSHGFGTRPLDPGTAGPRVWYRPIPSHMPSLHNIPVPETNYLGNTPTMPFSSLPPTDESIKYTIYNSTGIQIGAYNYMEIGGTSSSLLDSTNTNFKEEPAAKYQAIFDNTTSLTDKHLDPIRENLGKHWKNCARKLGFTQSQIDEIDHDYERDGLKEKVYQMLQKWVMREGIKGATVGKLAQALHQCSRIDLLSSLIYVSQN
Procedure: RIPK1 kinase activity was assayed using the ADP-Glo assay and RIPK1 kinase reaction system (Promega, catalog number: VA7593). The RIPK1 kinase activity assay was performed according to the Promega kit manual.
The experimental method was briefly described as below. The concentration of RIPK1 kinase in the RIPK1 kinase reaction system was determined by kinase titration and S/B10. Compounds were diluted with 1× kinase buffer D (1% DMSO), and 1 μL of 100 μM compound DMSO stock solution was added to 19 μL 1× kinase buffer D. RIPK1 kinase was diluted with 1× kinase buffer D. 2.5×ATP/substrate was diluted with 1× kinase buffer D. The final concentration of ATP in the kinase reaction system was 10 μM, and the final concentration of MBP substrate was 100 μg/mL. 1 μL of diluted compound and 2 μL of diluted RIPK1 kinase were mixed, incubated at room temperature for 15 minutes, 2 μL of 2.5×ATP/substrate was added, mixed, and incubated at room temperature for 1 hour. 5 μL of ADP-Glo reagent was added to each well and incubated at room temperature for 1 hour. 10 μL of ADP detection reagent was added to each well and incubated at room temperature for another 0.5-1 hour. The chemiluminescent signal was read by a microplate reader and the inhibition rate of kinase activity was calculated.

Compound	EC50 (U937 cells [1]) [nM]	Inhibition rate range of compounds (1 μM) on U937 cell necroptosis (U937 cells [2])	inhibition at 1 µM (RIPK1 kinase) [%]
CN1C(=O)[C@@H](NC(=O)C(=O)NCCc2ccccc2)COc2cc(C#CC3CC3)ccc21 [Example 4, (S)—N^1-(8-(cyclopropylethynyl)-5-methyl-4-oxo-2,3,4,5-tetrahydrobenzo[b][1,4]oxazepin-3-yl)-N^2-phenethyloxalamide]	500 to 2000	B (B: 50-89%)	
CN1C(=O)C(NC(=O)C(=O)NCCc2ccccc2)CCc2cc(C#CC3CC3)ccc21 (centres unmarked) [Example 64, N^1-(7-(cyclopropylethynyl)-1-methyl-2-oxo-2,3,4,5-tetrahydro-1H-benzo[b]azepin-3-yl)-N^2-phenethyloxalamide]	500 to 2000	B (B: 50-89%)	
CN1C(=O)C(NC(=O)C(=O)NCCc2ccccc2)CCc2ccccc21 (centres unmarked) [Example 67, N^1-(1-methyl-2-oxo-2,3,4,5-tetrahydro-1H-benzo[b]azepin-3-yl)-N^2-phenethyloxalamide]	100 to 500	A (A: ≥90%)	
CN1C(=O)[C@@H](NC(=O)C(=O)NCCc2ccccc2)COc2ccc(C#CC3CNC3)cc21 [Example 90, (S)—N^1-(7-(azetidin-3-ylethynyl)-5-methyl-4-oxo-2,3,4,5-tetrahydrobenzo[b][1,4]oxazepin-3-yl)-N^2-phenethyloxalamide]	100 to 500	B (B: 50-89%)	
CN1C(=O)[C@@H](NC(=O)C(=O)NCCc2cccc(Cl)c2)COc2ccccc21 [Example 101, (S)—N^1-(3-chlorophenethyl)-N^2-(5-methyl-4-oxo-2,3,4,5-tetrahydrobenzo[b][1,4]oxazepin-3-yl)oxalamide]			25 to 49
CN1C(=O)[C@@H](NC(=O)C(=O)NCCc2cccc(F)c2)COc2ccc(C#CC3(O)CCCCC3)cc21 [Example 112, (S)—N^1-(3-fluorophenethyl)-N^2-(7-((1-hydroxycyclohexyl)ethynyl)-5-methyl-4-oxo-2,3,4,5-tetrahydrobenzo[b][1,4]oxazepin-3-yl)oxalamide]	< 100	A (A: ≥90%)	
C[C@H](NC(=O)C(=O)N[C@H]1COc2ccc(C#CCN3CC[C@@H](O)C3)cc2N(C)C1=O)c1ccccc1 [Example 127, N^1-((S)-7-(3-((R)-3-hydroxypyrrolidin-1-yl)prop-1-yn-1-yl)-5-methyl-4-oxo-2,3,4,5-tetrahydrobenzo[b][1,4]oxazepin-3-yl)-N^2-((S)-1-phenylethyl)oxalamide]	100 to 500	B (B: 50-89%)	
C[C@H](NC(=O)C(=O)N[C@H]1COc2ccc(C#CCN3CC[C@H](O)C3)cc2N(C)C1=O)c1ccccc1 [Example 129, N^1-((S)-7-(3-((S)-3-hydroxypyrrolidin-1-yl)prop-1-yn-1-yl)-5-methyl-4-oxo-2,3,4,5-tetrahydrobenzo[b][1,4]oxazepin-3-yl)-N^2-((S)-1-phenylethyl)oxalamide]	100 to 500	B (B: 50-89%)	
C[C@H](NC(=O)C(=O)N[C@H]1COc2ccc(C#CC3(O)COC3)cc2N(C)C1=O)c1ccccc1 [Example 133, N^1-((S)-7-((3-hydroxyoxetan-3-yl)ethynyl)-5-methyl-4-oxo-2,3,4,5-tetrahydrobenzo[b][1,4]oxazepin-3-yl)-N^2-((S)-1-phenylethyl)oxalamide]	100 to 500	B (B: 50-89%)	
C[C@H](NC(=O)C(=O)N[C@H]1COc2ccc(C#CCN3CCOCC3)cc2N(C)C1=O)c1ccccc1 [Example 141, N^1-((S)-5-methyl-7-(3-morpholinoprop-1-yn-1-yl)-4-oxo-2,3,4,5-tetrahydrobenzo[b][1,4]oxazepin-3-yl)-N^2-((S)-1-phenylethyl)oxalamide]	< 100	A (A: ≥90%)	
C[C@@H](NC(=O)C(=O)N[C@H]1COc2ccc(C#CC3CN(CCO)C3)cc2N(C)C1=O)c1ccccc1 [Example 150, N^1-((S)-7-((1-(2-hydroxyethyl)azetidin-3-yl)ethynyl)-5-methyl-4-oxo-2,3,4,5-tetrahydrobenzo[b][1,4]oxazepin-3-yl)-N^2-((R)-1-phenylethyl)oxalamide]	< 100	A (A: ≥90%)	
C[C@@H](NC(=O)C(=O)N[C@H]1CNc2ccc(C#CCN3CCOCC3)cc2N(C)C1=O)c1ccccc1 [Example 165, N^1-((S)-1-methyl-8-(3-morpholinoprop-1-yn-1-yl)-2-oxo-2,3,4,5-tetrahydro-1H-benzo[b][1,4]diazepin-3-yl)-N^2-((R)-1-phenylethyl)oxalamide]	< 100	A (A: ≥90%)	
